Reference: a compilation of properties of binary mixtures (doi:10.1016/j.molliq.2020.113742)

Experiment: xn = mol fraction of the nth substance listed

CCCC[N+]1(C)CCCC1.F[P-](F)(F)(F)(F)F + CCCC[n+]1cccc(C)c1.F[P-](F)(F)(F)(F)F
viscosity [mPa·s], 101.3 kPa
Details | x2 = 0.2 | x2 = 0.3 | x2 = 0.4 | x2 = 0.5 | x2 = 0.6 | x2 = 0.7 | x2 = 0.8 | x2 = 0.9
303.13 K | – | – | 746 | – | – | – | – | –
308.15 K | – | – | – | 480 | 427 | – | – | –
313.15 K | – | 448 | – | 352 | 313 | 277 | – | –
318.15 K | – | 334 | – | – | 234 | 208 | 190 | –
323.15 K | – | 253 | 220 | 199 | 178 | 159 | 146 | 130
328.15 K | 221 | 195 | – | 153 | 138 | – | 113 | –
333.15 K | 173 | 153 | 133 | 121 | – | 97 | 89 | 80
338.15 K | 138 | 121 | 106 | – | 87 | 78 | 71 | 65
343.15 K | – | 98 | – | 78 | – | 63 | 58 | 53
348.15 K | 90 | 79 | 70 | 63 | – | 52 | 48 | 43
353.15 K | 74 | 65 | – | 53 | 48 | 43 | 40 | 36
358.15 K | – | 55 | – | 44 | 40 | 36 | 33 | 30
363.15 K | 51 | 46 | 41 | – | – | 31 | 28 | 26

CCCC[N+]1(C)CCCCC1.F[P-](F)(F)(F)(F)F + CCCC[N+]1(C)CCCC1.F[P-](F)(F)(F)(F)F
viscosity [mPa·s], 102 kPa
Details | 353.15 K | 363.15 K | 373.15 K | 383.15 K
x1 = 0.3 | 126 | 85 | 58 | –
x1 = 0.5 | – | 101 | 68 | 48
x1 = 0.7 | 194 | 125 | 84 | 59
